Results: US6706747B2, “Conformationally rigid bicyclic and adamantane derivatives useful as α2-adrenergic blocking agents” (Allergan, Inc., priority 1994, dated 2004)

Key:
Rat Kidney Cortex (α2AB) = target: T1, Rat Kidney Cortex (α2AB) (Rattus norvegicus, UniProt P19328); test: Radioligand binding, [3H]rauwolscine, rat kidney cortex (RKC) membranes; settings: values marked †: rat kidney cortex, 0° C., 120 minutes, read-out: Ki (nM) α2B (RKC)†
T1 construct: Membrane suspensions were prepared from human cerebral cortex (HCC) obtained from the UCI Organ and Tissue Bank and rat kidney cortex (RKC); from tissue; host or cells: rat kidney cortex
T1 sequence (P19328 1-453): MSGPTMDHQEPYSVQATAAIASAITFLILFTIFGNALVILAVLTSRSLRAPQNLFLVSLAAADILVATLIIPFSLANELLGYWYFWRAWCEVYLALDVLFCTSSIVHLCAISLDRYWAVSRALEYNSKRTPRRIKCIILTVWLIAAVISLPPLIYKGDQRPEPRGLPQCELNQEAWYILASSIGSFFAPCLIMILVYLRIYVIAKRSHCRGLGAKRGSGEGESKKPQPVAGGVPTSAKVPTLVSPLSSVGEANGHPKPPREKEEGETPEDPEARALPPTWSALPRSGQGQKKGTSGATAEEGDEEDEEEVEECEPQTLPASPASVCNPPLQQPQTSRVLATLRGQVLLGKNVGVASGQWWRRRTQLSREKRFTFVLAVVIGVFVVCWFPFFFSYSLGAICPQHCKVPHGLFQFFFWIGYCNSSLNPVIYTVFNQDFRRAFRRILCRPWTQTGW
Experimental: (§1) Tissue preparation: Membrane suspensions were prepared from human cerebral cortex (HCC) obtained from the UCI Organ and Tissue Bank and rat kidney cortex (RKC). Briefly, tissues (1 g) were homogenized in 25 ml of iced-cold 5 mM tris, pH 7.4 with a Polytron homogenizer for 30 secs at setting# 7, and centrifuged for. 10-12 minutes at 300×g at 4° C. The supernatant was filtered: through 2 layers of gauze and diluted 1:2 with 50 mM Tris-HCI buffer, pH 7.4, then centrifuged at 49,000×g for 20 minutes. The pellet fraction was washed 3 times (resuspended in Tris-HCl buffer and centrifuged for 20 minutes at 49,000×g). The pellet was then stored at −80° C. until the binding assay.
(§2) Binding studies: The radioligands [^3H]rauwolscine (specific activity 80 Ci/mmol) and [^3H]prazosin (specific activity 76 Ci/mmol) were obtained from New England Nuclear, Boston, Mass. Frozen membrane pellet was resuspended in 25 mM glycine/glycine, pH 7.4 and incubated with radioligand under the following conditions: CHO—C10, CHO—RNG, HT-29-[^3H]rauwolscine, 22° C., 30 minutes; RKC-[^3H]rauwolscine, 0° C., 120 minutes; and, HCC-[^3H]prazosin, 22° C., 30 minutes in a final volume of 500 μl. At the end of the incubation period, the samples were filtered through glass fiber filters (Whatman GF/B) in a 96 well cell harvester and rapidly washed four times with 4 ml of ice-cold 50 mM, Tris-HCl buffer. The filters were then oven dried and transferred to scintillation vials containing 5 ml of Beckman's Ready Protein® scintillation cocktail for counting. Specific binding defined by 10 μM phentolamine for competition studies were as follows: 0.3 nM [^3H]rauwolscine—CHO—C10 99%; 0.4 nM[^3H]rauwolscine —CHO—RNG 99%; 0.7;nM [^3H]rauwolscine—HT-29 90%; 1 nm [^3]rauwolscine—RKC 92%, and 0.3 nM [^3H]prazosin—HCC 87%. Protein concentrations were determined with a protein assay kit from Bio Rad. Binding isotherms, equilibrium dissociation and affinity constants were analyzed and determined by the non-linear least squares curve fitting programs AccuFit Competition/Saturation by Beckman.

α1 = test: Radioligand binding, [3H]prazosin, human cerebral cortex (HCC) membranes; settings: 22° C., 30 minutes
Experimental: as §1
as §2, with “Specific binding defined by 10 μM phentolamine for competition studies were as follows: 0.3 nM [^3H]rauwolscine—CHO—C10 99%; 0.4 nM[^3H]rauwolscine —CHO—RNG 99%; 0.7;nM [^3H]rauwolscine—HT-29 90%; 1 nm [^3]rauwolscine—RKC 92%, and 0.3 nM [^3H]prazosin—HCC 87%.” left out
Frozen membrane pellet was resuspended either 50 mM tris, 2 mM EGTA, 1 mM MgCl2, pH7.5 (RbKC, RbICB-[^3H]brimonidine); 50 mM tris, 0.5 mM EDTA, 5 mM NaCl, pH 7.7 (RbICB-[^3H]rauwolscine); 25 mM glycine/glycine, pH 7.4 (RtKC, CHO—C10, CH—RNG, HT-29, HCC) or 50 mM tris, 0.1 mM MnCl2, pH7.7 (RtCC). Membrane protein homogenate (75-200 μg) was incubated with radioligand under the following conditions: RbKC and RbICB-[^3H]rauwolscine, 22° C., 45 minutes; RtCC and RbICB-[^3H]brimondine, 22° C., 90 minutes; CHO—C10, CHO—RNG and HT-29-[^3H]rauwolscine, 22° C., 30 minutes; HCC—[^3H]prazosin, 22° C., 30 minutes; and, in a final volume of 250 or 500 μl. At the end of the incubation period, the samples were filtered through glass fiber filters (Whatman GF/B) in a 24 or 96 well cell harvester and rapidly washed four times with 4 mls of iced-cold 50 mM Tris-HCl buffer. The filters were then oven dried and transferred to scintillation vials containing 10 mls of, Beckman's Ready Protein® scintillation cocktail for counting. […] Protein concentrations were determined with a protein assay kit from Bio Rad. Binding isotherms, equilibrium dissociation and affinity constants were analyzed and determined by the non-linear least squares curve fitting programs EBDA (BioSoft) or AccuFit Competition/Saturation by Beckman.
The radioligands [^3H]rauwolscine (specific activity 80 Ci/mmol) and [^3H]prazosin (specific activity 76 Ci/mmol) were obtained from New England Nuclear, Boston, Mass. Frozen membrane pellet was resuspended in 25 mM glycine/glycine, pH 7.4 and incubated with radioligand under the following conditions: CHO—C10, CHO—RNG-[^3H]rauwolscine, 22° C., 30 minutes; and, HCC—[^3H]prazosin, 22° C., 30 minutes in a final volume of 500 ul.

Ki (Rat Kidney Cortex (α2AB)) | Ki (α1) | SMILES
5100 nM | 17200 nM | C1CCC(C2C3CCC(C3)C2NC2=NCCN2)CC1 (stereo not shown)
59 nM | 5820 nM | CCCCC1C2CCC(C2)C1NC1=NCCO1 (stereo not shown)
58 nM | > 10000 nM | CC(C)C1C2CCC(C2)C1NC1=NCCO1 (stereo not shown)
167 nM | 42000 nM | CCCCC1C2CCC(C2)C1NC1=NCCS1 (stereo not shown)
317 nM | > 100000 nM | CCCCNC1=NCCO1
